Source: US9115137B2, “2,3,4,5-tetrahydro-1H-pyrido[4,3-B]indole compounds and methods of use thereof” (priority 2008, dated 2015)
Where two headings read alike, the source gives them in different places.

What was measured:
[1] = molecular target: T1, human recombinant serotonin (5-Hydroxytryptamine) 5-HT6 receptor (Homo sapiens, UniProt P50406); assay: Serotonin 5-HT6 radioligand binding ([3H]LSD); settings: read-out: Serotonin (1 μM) 5-HT6, percent inhibition of specific binding
T1 construct: expressed in transfected cells; host or cells: human HeLa cells
T1 sequence (P50406 whole entry): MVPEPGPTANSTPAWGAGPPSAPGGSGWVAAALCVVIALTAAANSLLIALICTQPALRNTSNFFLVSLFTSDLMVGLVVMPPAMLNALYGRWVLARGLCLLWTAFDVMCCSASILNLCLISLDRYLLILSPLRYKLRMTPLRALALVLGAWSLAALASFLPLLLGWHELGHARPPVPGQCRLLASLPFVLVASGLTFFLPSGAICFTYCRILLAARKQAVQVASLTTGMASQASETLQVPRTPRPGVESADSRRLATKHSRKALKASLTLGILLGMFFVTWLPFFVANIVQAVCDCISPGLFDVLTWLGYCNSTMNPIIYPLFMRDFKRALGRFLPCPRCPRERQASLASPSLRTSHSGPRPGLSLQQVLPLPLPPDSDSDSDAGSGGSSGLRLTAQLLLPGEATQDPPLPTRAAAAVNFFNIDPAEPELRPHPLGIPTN
Protocol: To evaluate in radioligand binding assays the activity of compounds of the invention, human recombinant serotonin (5-Hydroxytryptamine) 5-HT6 receptor expressed in human HeLa cells (Monsma, F. J. Jr. et al., Mol. Pharmacol. 43:320, 1993) in a modified Tris-HCl buffer (50 mM Tris-HCl, pH 7.4, 150 mM NaCl, 2 mM Ascorbic Acid, 0.001% BSA) was used. Compounds of the invention were incubated with 1.5 nM [3H]Lysergic acid diethylamide (LSD) for 120 minutes at 37° C. Non-specific binding was estimated in the presence of 5 μM Serotonin (5-HT). Receptor proteins were filtered and washed, the filters were then counted to determine [3H]LSD specifically bound. Compounds were screened at 1 μM or lower, using 1% DMSO as vehicle. Biochemical assay results are presented as the percent inhibition of specific binding in Table 7.

[2] = molecular target: T2, human recombinant histamine H2 receptor (Homo sapiens, UniProt P25021); assay: Histamine H2 radioligand binding ([125I]aminopotentidine); settings: read-out: Histamine Binding (1 μM) H2, percent inhibition of specific binding
T2 construct: expressed in transfected cells; host or cells: CHO-K1 cells
T2 sequence (P25021 whole entry): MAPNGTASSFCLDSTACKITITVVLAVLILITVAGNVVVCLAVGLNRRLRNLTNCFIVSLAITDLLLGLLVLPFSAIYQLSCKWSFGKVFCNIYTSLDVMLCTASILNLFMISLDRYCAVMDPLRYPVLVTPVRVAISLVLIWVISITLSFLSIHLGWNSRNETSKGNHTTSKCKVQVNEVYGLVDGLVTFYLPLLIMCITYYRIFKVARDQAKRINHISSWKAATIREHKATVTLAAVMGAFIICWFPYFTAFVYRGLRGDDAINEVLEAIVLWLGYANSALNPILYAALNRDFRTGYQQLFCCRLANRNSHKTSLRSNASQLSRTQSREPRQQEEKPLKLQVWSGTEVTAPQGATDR
Protocol: To evaluate in radioligand binding assays the activity of compounds of the invention, human recombinant histamine H2 receptor expressed in Chinese hamster ovary (CHO) K1 cells (Ruat, M., Proc. Natl. Acad. Sci. USA. 87(5):1658, 1990) in a 50 mM Phosphate buffer, pH 7.4 was used. Compounds of the invention were incubated with 0.1 nM [^125I]aminopotentidine for 120 minutes at 25° C. Non-specific binding was estimated in the presence of 3 μM Tiotidine. Receptor proteins were filtered and washed, the filters were then counted to determine [^125I]Aminopotentidine specifically bound. Compounds were screened at 1 μM, using 1% DMSO as vehicle. Biochemical assay results are presented as the percent inhibition of specific binding in Table 5.

[3] = molecular target: T3, human recombinant adrenergic α2A receptor (Homo sapiens, UniProt P08913); assay: Adrenergic α2A radioligand binding ([3H]MK-912); settings: read-out: Adrenergic (1 μM) α2A, percent inhibition of specific binding
T3 construct: expressed in transfected cells; host or cells: insect Sf9 cells
T3 sequence (P08913 1-465): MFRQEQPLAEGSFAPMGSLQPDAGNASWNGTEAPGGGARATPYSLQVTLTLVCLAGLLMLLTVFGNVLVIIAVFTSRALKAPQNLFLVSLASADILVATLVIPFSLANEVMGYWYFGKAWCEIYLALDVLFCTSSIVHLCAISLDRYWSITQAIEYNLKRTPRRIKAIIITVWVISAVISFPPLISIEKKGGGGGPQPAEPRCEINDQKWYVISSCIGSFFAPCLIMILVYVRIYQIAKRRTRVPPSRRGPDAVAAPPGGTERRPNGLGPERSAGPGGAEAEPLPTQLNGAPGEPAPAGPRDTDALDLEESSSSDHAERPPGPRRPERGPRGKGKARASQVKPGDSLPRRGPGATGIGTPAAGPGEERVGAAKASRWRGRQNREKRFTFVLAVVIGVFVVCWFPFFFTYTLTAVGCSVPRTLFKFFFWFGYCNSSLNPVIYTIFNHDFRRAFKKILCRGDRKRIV
Protocol: To evaluate in radioligand binding assays the activity of compounds of the invention, human recombinant adrenergic α2A receptor expressed in insect Sf9 cells (Uhlen S et al. J Pharmacol Exp Ther. 271:1558, 1994) in a modified Tris-HCl buffer (50 mM Tris-HCl, pH 7.4, 12.5 mM MgCl2, 2 mM EDTA) was used. Compounds of invention were incubated with 1 nM [^3H]MK-912 for 60 minutes at 25° C. MK912 is (2S-trans)-1,3,4,5′,6,6′,7,12b-octahydro-1′,3′-dimethyl-spiro[2H-benzofuro[2,3-a]quinolizine-2,4′(1′H)-pyrimidin]-2′(3′H)-one hydrochloride Non-specific binding was estimated in the presence of 10 μM WB-4101 (2-(2,6-Dimethoxyphenoxyethyl)aminomethyl-1,4-benzodioxane hydrochloride). Receptor proteins were filtered and washed, the filters were then counted to determine [^3H]MK-912 specifically bound. Compounds were screened at 1 μM or lower, using 1% DMSO as vehicle. Biochemical assay results are presented as the percent inhibition of specific binding in Table 6.

[4] = molecular target: T4, human recombinant adrenergic α1D receptor (Homo sapiens, UniProt P25100); assay: Adrenergic α1D radioligand binding ([3H]Prozosin); settings: read-out: Adrenergic (1 μM) α1D, percent inhibition of specific binding
T4 construct: expressed in transfected cells; host or cells: HEK-293 cells
T4 sequence (P25100 1-572): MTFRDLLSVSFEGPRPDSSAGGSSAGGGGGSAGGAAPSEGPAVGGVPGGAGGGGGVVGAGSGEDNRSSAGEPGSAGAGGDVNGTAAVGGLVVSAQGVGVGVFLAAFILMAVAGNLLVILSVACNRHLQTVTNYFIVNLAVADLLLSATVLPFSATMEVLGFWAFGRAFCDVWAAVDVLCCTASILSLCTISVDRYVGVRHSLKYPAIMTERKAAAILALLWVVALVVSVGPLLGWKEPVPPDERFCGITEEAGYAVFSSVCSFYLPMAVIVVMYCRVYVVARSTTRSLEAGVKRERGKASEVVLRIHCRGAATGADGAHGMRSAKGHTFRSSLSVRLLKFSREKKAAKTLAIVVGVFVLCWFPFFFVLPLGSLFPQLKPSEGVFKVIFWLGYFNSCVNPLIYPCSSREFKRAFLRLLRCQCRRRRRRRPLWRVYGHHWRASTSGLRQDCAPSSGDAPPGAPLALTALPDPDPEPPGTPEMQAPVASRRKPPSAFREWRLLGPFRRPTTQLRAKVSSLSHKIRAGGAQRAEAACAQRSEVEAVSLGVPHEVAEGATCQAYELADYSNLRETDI
Protocol: To evaluate in radioligand binding assays the activity of compounds of the invention, human recombinant adrenergic α1D receptor expressed in human embryonic kidney (HEK-293) cells (Kenny, B. A. et al. Br. J. Pharmacol. 115(6):981, 1995) in a 50 mM Tris-HCl buffer, pH 7.4, was used. Compounds of invention were incubated with 0.6 nM [^3H]Prozosin for 60 minutes at 25° C. Non-specific binding was estimated in the presence of 10 μM phentolamine. Receptor proteins were filtered and washed, the filters were then counted to determine [^3H]Prozosin specifically bound. Compounds were screened at 1 μM or lower, using 1% DMSO as vehicle. Biochemical assay results are presented as the percent inhibition of specific binding in Table 6.

[5] = compound at 1 μM, insect Sf9 cells
[6] = compound at 1 μM, HEK-293 cells

| SMILES | inhibition at 1 µM ([1]; compound at 1 μM, HeLa cells) | inhibition at 1 µM ([2]; compound at 1 μM, CHO K1 cells) | inhibition at 1 µM [3, 5] | inhibition at 1 µM [4, 6] | inhibition at 1 µM [1] | inhibition at 1 µM [2] | inhibition at 1 µM [3] | inhibition at 1 µM [4] |
| --- | --- | --- | --- | --- | --- | --- | --- | --- |
| CCOC(=O)CCn1c2c(c3cc(C)ccc31)CN(C)CC2 [CD1, ethyl 3-(1,2,3,4-tetrahydro-2,8-dimethylpyrido[4,3-b]indol-5-yl)propanoate] | 78% | 35% | 62% | 54% |  |  |  |  |
| CCOC(=O)CCn1c2c(c3cc(Cl)ccc31)CN(C)CC2 [CD17, ethyl 3-(8-chloro-1,2,3,4-tetrahydro-2-methylpyrido[4,3-b]indol-5-yl)propanoate] | 101% | 46% | 87% | 70% |  |  |  |  |
| CN1CCc2c(c3cc(Cl)ccc3n2CC(=O)O)C1 [CD46, 2-(8-chloro-1,2,3,4-tetrahydro-2-methylpyrido[4,3-b]indol-5-yl)acetic acid] | 39% | -3% | 13% | 10% |  |  |  |  |
| Cc1ccc2c(c1)c1c(n2CCC(=O)O)CCN(C)C1 [CD47, 3-(1,2,3,4-tetrahydro-2,8-dimethylpyrido[4,3-b]indol-5-yl)propanoic acid] | 11% | 16% | 17% | 6% |  |  |  |  |
| CN1CCc2c(c3cc(Cl)ccc3n2CCC(=O)O)C1 [CD55, 3-(8-chloro-1,2,3,4-tetrahydro-2-methylpyrido[4,3-b]indol-5-yl)propanoic acid] | -3% | -2% | -2% | 14% |  |  |  |  |
| CCOC(=O)Cn1c2c(c3cc(C)ccc31)CN(C)CC2 [CD57, ethyl 2-(1,2,3,4-tetrahydro-2,8-dimethylpyrido[4,3-b]indol-5-yl)acetate] | 67% | 28% | 45% | 39% |  |  |  |  |
| Cc1ccc2c(c1)c1c(n2CC(=O)O)CCN(C)C1 [CD58, 2-(1,2,3,4-tetrahydro-2,8-dimethylpyrido[4,3-b]indol-5-yl)acetic acid] | -5% | 5% | -7% | 0% |  |  |  |  |
| Cc1ccc2c(c1)c1c(n2CC#N)CCN(C)C1 [CD61, 2-(1,2,3,4-tetrahydro-2,8-dimethylpyrido[4,3-b]indol-5-yl)acetonitrile] | 68% | 15% | 73% | 74% |  |  |  |  |
| Cc1ccc2c(c1)c1c(n2CCN)CCN(C)C1 [CD62, 2-(1,2,3,4-tetrahydro-2,8-dimethylpyrido[4,3-b]indol-5-yl)ethanamine] | 12% | 65% | 42% | 34% |  |  |  |  |
| C#CCn1c2c(c3cc(C)ccc31)CN(C)CC2 [CD73, 2,8-dimethyl-5-(prop-2-ynyl)-2,3,4,5-tetrahydro-1H-pyrido[4,3-b]indole] | 83% | 19% | 70% | 57% |  |  |  |  |
| CN1CCc2c(c3cc(Cl)ccc3n2CCCO)C1 [CD87, 3-(8-chloro-2-methyl-3,4-dihydro-1H-pyrido[4,3-b]indol-5(2H)-yl)propan-1-ol] | 35% | 18% | 79% | 75% |  |  |  |  |
| CN1CCc2c(c3cc(Cl)ccc3n2CCBr)C1 [CD88, 5-(2-bromoethyl)-8-chloro-2-methyl-2,3,4,5-tetrahydro-1H-pyrido[4,3-b]indole] |  |  |  |  | 87% | 64% | 80% | 94% |
| CN1CCc2c(c3cc(Cl)ccc3n2CCO)C1 [CD89, 2-(8-chloro-2-methyl-3,4-dihydro-1H-pyrido[4,3-b]indol-5(2H)-yl)ethanol] | 36% | 14% | 70% | 69% |  |  |  |  |
| Cc1ccc2c(c1)c1c(n2CCO)CCN(C)C1 [CD90, 2-(2,8-dimethyl-3,4-dihydro-1H-pyrido[4,3-b]indol-5(2H)-yl)ethanol] | 7% | 11% | 22% | 23% |  |  |  |  |
| Cc1ccc2c(c1)c1c(n2CCBr)CCN(C)C1 [CD91, 5-(2-bromoethyl)-2,8-dimethyl-2,3,4,5-tetrahydro-1H-pyrido[4,3-b]indole] | 88% | 65% | 86% | 88% |  |  |  |  |
| Cc1ccc2c(c1)c1c(n2CCC#N)CCN(C)C1 [CD92, 3-(2,8-dimethyl-3,4-dihydro-1H-pyrido[4,3-b]indol-5(2H)-yl)propanenitrile] | 47% | 8% | 76% | 78% |  |  |  |  |
| CN1CCc2c(c3cc(Cl)ccc3n2CCC#N)C1 [CD94, 3-(8-chloro-2-methyl-3,4-dihydro-1H-pyrido[4,3-b]indol-5(2H)-yl)propanenitrile] | 40% | 2% | 73% | 74% |  |  |  |  |
| CNC(=O)CCn1c2c(c3cc(C)ccc31)CN(C)CC2 [Compound 1, 3-(1,2,3,4-tetrahydro-2,8-dimethylpyrido[4,3-b]indol-5-yl)-N-methylpropanamide] | 8% | 8% | 18% | 20% |  |  |  |  |
